Test results as given in patent US9580444B2, “Polycyclic pyrazolinone derivative and herbicide comprising same as effective component thereof” (priority 2013, dated 2017).

What was measured:
Assay in all cases: Test Example-1: herbicidal effect by a treatment before weeds are generated under submerged conditions
Assay type in all cases: in vivo
Conditions in all cases: 500 g a.i/ha, pre-emergence treatment, about 15 days after treatment, score 0-5
[1] = test system: Eleocharis acicularis (needle spikerush)
Experimental: (§1) Using the formulation prepared according to the methods described above, the herbicidal effect of the bicyclic pyrazolinone derivative of the invention according to the methods shown in Test Examples below was examined. The herbicidal effect with respect to the test weeds or the phytotoxicity with respect to the test crops was examined according to the following criteria, and evaluated in six stage scores of 0 to 5.
(§2) A plastic cup of 30 cm^2 was filled with paddy soil, soil puddling was performed, seeds of Echinochloa oryzicola (barnyard grass), Cyperus difformis (smallflower umbrella plant), Monochoria vaginalis (monochoria), Scirpus juncoides (bulrush), and Eleocharis acicularis (needle spikerush), and Lindernia procumbens (common false pimpernel), Rotala indica (indian toothcup), Elatine triandra (waterwort) as other annual broad leaf weeds were seeded therein, and kept in a submerged state. A wettable powder or an emulsifiable concentrate of the compound of the present invention prepared according to Formulation Example was diluted on the weed seeding day, and a submersing treatment was performed so as to be a predetermined dosage. The herbicidal effect with respect to the test weeds about 15 days after the treatment was evaluated according to the evaluation criteria in six stages of 0 to 5 described above.

[2] = test system: other annual broad leaf weeds (Lindernia procumbens, Rotala indica, Elatine triandra)
Experimental: as §1, §2

[3] = test system: Scirpus juncoides (bulrush)
Experimental: as §1, §2

[4] = test system: Echinochloa oryzicola (barnyard grass)
Experimental: as §1, §2

[5] = test system: Monochoria vaginalis (monochoria)
Experimental: as §1, §2

[6] = test system: Cyperus difformis (smallflower umbrella plant)
Experimental: as §1, §2

CCOC(=CC(=O)OC(C)C)COc1cc(-c2c(Cl)n3n(c2=O)CCCC3)c(F)cc1Cl [Compound 2-26]
Herbicidal effect Eleocharis acicularis [1]: 5 (Herbicidal effect/phytotoxicity was 90% or greater) | Herbicidal effect Broadleaf weed [2]: 5 (Herbicidal effect/phytotoxicity was 90% or greater) | Herbicidal effect Scirpus juncoides [3]: 5 (Herbicidal effect/phytotoxicity was 90% or greater) | Herbicidal effect Echinochloa oryzicola [4]: 5 (Herbicidal effect/phytotoxicity was 90% or greater) | Herbicidal effect Monochoria vaginalis [5]: 5 (Herbicidal effect/phytotoxicity was 90% or greater) | Herbicidal effect Cyperus difformis [6]: 5 (Herbicidal effect/phytotoxicity was 90% or greater)

COc1cccc(Oc2cc(-c3c(Cl)n4n(c3=O)CCCC4)c(F)cc2Cl)c1 [Compound 3-5]
Herbicidal effect Eleocharis acicularis [1]: 5 (Herbicidal effect/phytotoxicity was 90% or greater) | Herbicidal effect Broadleaf weed [2]: 5 (Herbicidal effect/phytotoxicity was 90% or greater) | Herbicidal effect Scirpus juncoides [3]: 5 (Herbicidal effect/phytotoxicity was 90% or greater) | Herbicidal effect Echinochloa oryzicola [4]: 5 (Herbicidal effect/phytotoxicity was 90% or greater) | Herbicidal effect Monochoria vaginalis [5]: 5 (Herbicidal effect/phytotoxicity was 90% or greater) | Herbicidal effect Cyperus difformis [6]: 5 (Herbicidal effect/phytotoxicity was 90% or greater)

COc1cc(Cl)ccc1Oc1cc(-c2c(Cl)n3n(c2=O)CCCC3)c(F)cc1Cl [Compound 3-37]
Herbicidal effect Eleocharis acicularis [1]: 5 (Herbicidal effect/phytotoxicity was 90% or greater) | Herbicidal effect Broadleaf weed [2]: 5 (Herbicidal effect/phytotoxicity was 90% or greater) | Herbicidal effect Scirpus juncoides [3]: 5 (Herbicidal effect/phytotoxicity was 90% or greater) | Herbicidal effect Echinochloa oryzicola [4]: 5 (Herbicidal effect/phytotoxicity was 90% or greater) | Herbicidal effect Monochoria vaginalis [5]: 5 (Herbicidal effect/phytotoxicity was 90% or greater) | Herbicidal effect Cyperus difformis [6]: 5 (Herbicidal effect/phytotoxicity was 90% or greater)

O=c1c(-c2cc(OC3C=CCCC3)c(Cl)cc2F)c(Cl)n2n1CCCC2 (stereo not drawn) [Example 1-232]
Herbicidal effect Eleocharis acicularis [1]: 5 (Herbicidal effect/phytotoxicity was 90% or greater) | Herbicidal effect Broadleaf weed [2]: 5 (Herbicidal effect/phytotoxicity was 90% or greater) | Herbicidal effect Scirpus juncoides [3]: 5 (Herbicidal effect/phytotoxicity was 90% or greater) | Herbicidal effect Echinochloa oryzicola [4]: 5 (Herbicidal effect/phytotoxicity was 90% or greater) | Herbicidal effect Monochoria vaginalis [5]: 5 (Herbicidal effect/phytotoxicity was 90% or greater) | Herbicidal effect Cyperus difformis [6]: 5 (Herbicidal effect/phytotoxicity was 90% or greater)

COCOc1cccc(Oc2cc(-c3c(Cl)n4n(c3=O)CCCC4)c(F)cc2Cl)c1 [Compound 3-14]
Herbicidal effect Eleocharis acicularis [1]: 5 (Herbicidal effect/phytotoxicity was 90% or greater) | Herbicidal effect Broadleaf weed [2]: 5 (Herbicidal effect/phytotoxicity was 90% or greater) | Herbicidal effect Scirpus juncoides [3]: 5 (Herbicidal effect/phytotoxicity was 90% or greater) | Herbicidal effect Echinochloa oryzicola [4]: 5 (Herbicidal effect/phytotoxicity was 90% or greater) | Herbicidal effect Monochoria vaginalis [5]: 5 (Herbicidal effect/phytotoxicity was 90% or greater) | Herbicidal effect Cyperus difformis [6]: 5 (Herbicidal effect/phytotoxicity was 90% or greater)

O=c1c(-c2cc(Oc3c(F)cc(C(F)(F)F)cc3Cl)c(F)cc2F)c(Cl)n2n1CCCC2 [Example 1-340]
Herbicidal effect Eleocharis acicularis [1]: 5 (Herbicidal effect/phytotoxicity was 90% or greater) | Herbicidal effect Broadleaf weed [2]: 5 (Herbicidal effect/phytotoxicity was 90% or greater) | Herbicidal effect Scirpus juncoides [3]: 5 (Herbicidal effect/phytotoxicity was 90% or greater) | Herbicidal effect Echinochloa oryzicola [4]: 5 (Herbicidal effect/phytotoxicity was 90% or greater) | Herbicidal effect Monochoria vaginalis [5]: 5 (Herbicidal effect/phytotoxicity was 90% or greater) | Herbicidal effect Cyperus difformis [6]: 5 (Herbicidal effect/phytotoxicity was 90% or greater)

COc1cc(F)ccc1Oc1cc(-c2c(Cl)n3n(c2=O)CCCC3)c(F)cc1Cl [Compound 3-33]
Herbicidal effect Eleocharis acicularis [1]: 5 (Herbicidal effect/phytotoxicity was 90% or greater) | Herbicidal effect Broadleaf weed [2]: 5 (Herbicidal effect/phytotoxicity was 90% or greater) | Herbicidal effect Scirpus juncoides [3]: 5 (Herbicidal effect/phytotoxicity was 90% or greater) | Herbicidal effect Echinochloa oryzicola [4]: 5 (Herbicidal effect/phytotoxicity was 90% or greater) | Herbicidal effect Monochoria vaginalis [5]: 5 (Herbicidal effect/phytotoxicity was 90% or greater) | Herbicidal effect Cyperus difformis [6]: 5 (Herbicidal effect/phytotoxicity was 90% or greater)

O=c1c(-c2cc(OC3CCCC3)c(F)cc2F)c(Cl)n2n1CCCC2 [Example 1-98]
Herbicidal effect Eleocharis acicularis [1]: 5 (Herbicidal effect/phytotoxicity was 90% or greater) | Herbicidal effect Broadleaf weed [2]: 5 (Herbicidal effect/phytotoxicity was 90% or greater) | Herbicidal effect Scirpus juncoides [3]: 5 (Herbicidal effect/phytotoxicity was 90% or greater) | Herbicidal effect Echinochloa oryzicola [4]: 5 (Herbicidal effect/phytotoxicity was 90% or greater) | Herbicidal effect Monochoria vaginalis [5]: 5 (Herbicidal effect/phytotoxicity was 90% or greater) | Herbicidal effect Cyperus difformis [6]: 5 (Herbicidal effect/phytotoxicity was 90% or greater)

COCOc1ccc(Oc2cc(-c3c(Cl)n4n(c3=O)CCCC4)c(F)cc2Cl)cc1 [Compound 3-15]
Herbicidal effect Eleocharis acicularis [1]: 5 (Herbicidal effect/phytotoxicity was 90% or greater) | Herbicidal effect Broadleaf weed [2]: 5 (Herbicidal effect/phytotoxicity was 90% or greater) | Herbicidal effect Scirpus juncoides [3]: 5 (Herbicidal effect/phytotoxicity was 90% or greater) | Herbicidal effect Echinochloa oryzicola [4]: 5 (Herbicidal effect/phytotoxicity was 90% or greater) | Herbicidal effect Monochoria vaginalis [5]: 5 (Herbicidal effect/phytotoxicity was 90% or greater) | Herbicidal effect Cyperus difformis [6]: 5 (Herbicidal effect/phytotoxicity was 90% or greater)

CC1(COc2cc(-c3c(Cl)n4n(c3=O)CCCC4)c(F)cc2Cl)CC(c2ccc(F)cc2)=NO1 (stereo not drawn) [Compound 4-7]
Herbicidal effect Eleocharis acicularis [1]: 5 (Herbicidal effect/phytotoxicity was 90% or greater) | Herbicidal effect Broadleaf weed [2]: 5 (Herbicidal effect/phytotoxicity was 90% or greater) | Herbicidal effect Scirpus juncoides [3]: 5 (Herbicidal effect/phytotoxicity was 90% or greater) | Herbicidal effect Echinochloa oryzicola [4]: 5 (Herbicidal effect/phytotoxicity was 90% or greater) | Herbicidal effect Monochoria vaginalis [5]: 5 (Herbicidal effect/phytotoxicity was 90% or greater) | Herbicidal effect Cyperus difformis [6]: 5 (Herbicidal effect/phytotoxicity was 90% or greater)

COc1cc(-c2c(F)n3n(c2=O)CCCC3)c(Cl)cc1Cl [Example 1-356]
Herbicidal effect Eleocharis acicularis [1]: 5 (Herbicidal effect/phytotoxicity was 90% or greater) | Herbicidal effect Broadleaf weed [2]: 5 (Herbicidal effect/phytotoxicity was 90% or greater) | Herbicidal effect Scirpus juncoides [3]: 5 (Herbicidal effect/phytotoxicity was 90% or greater) | Herbicidal effect Echinochloa oryzicola [4]: 5 (Herbicidal effect/phytotoxicity was 90% or greater) | Herbicidal effect Monochoria vaginalis [5]: 5 (Herbicidal effect/phytotoxicity was 90% or greater) | Herbicidal effect Cyperus difformis [6]: 5 (Herbicidal effect/phytotoxicity was 90% or greater)

O=c1c(-c2ccc(F)cc2F)c(Cl)n2n1CCCC2 [Example 1-75]
Herbicidal effect Eleocharis acicularis [1]: 5 (Herbicidal effect/phytotoxicity was 90% or greater) | Herbicidal effect Broadleaf weed [2]: 5 (Herbicidal effect/phytotoxicity was 90% or greater) | Herbicidal effect Scirpus juncoides [3]: 5 (Herbicidal effect/phytotoxicity was 90% or greater) | Herbicidal effect Echinochloa oryzicola [4]: 5 (Herbicidal effect/phytotoxicity was 90% or greater) | Herbicidal effect Monochoria vaginalis [5]: 5 (Herbicidal effect/phytotoxicity was 90% or greater) | Herbicidal effect Cyperus difformis [6]: 5 (Herbicidal effect/phytotoxicity was 90% or greater)

C=C(C)COC(=O)C=C(COc1cc(-c2c(Cl)n3n(c2=O)CCCC3)c(F)cc1Cl)OCCC [Compound 2-33]
Herbicidal effect Eleocharis acicularis [1]: 5 (Herbicidal effect/phytotoxicity was 90% or greater) | Herbicidal effect Broadleaf weed [2]: 5 (Herbicidal effect/phytotoxicity was 90% or greater) | Herbicidal effect Scirpus juncoides [3]: 5 (Herbicidal effect/phytotoxicity was 90% or greater) | Herbicidal effect Echinochloa oryzicola [4]: 5 (Herbicidal effect/phytotoxicity was 90% or greater) | Herbicidal effect Monochoria vaginalis [5]: 5 (Herbicidal effect/phytotoxicity was 90% or greater) | Herbicidal effect Cyperus difformis [6]: 5 (Herbicidal effect/phytotoxicity was 90% or greater)
